Source: patent US8354102B2, “Antibodies directed to mGluR7” (Hoffmann-La Roche Inc., priority 2007, dated 2013)
In the oligonucleotide strings, read from the 5' end, every base follows the letter of its sugar. An asterisk marks phosphorothioate; unmarked linkages are phosphodiester. Other units and linkages are bracketed, terminal groups are in braces. A string of capitals states the bases alone. [C6SSC6] = C6-disulfide-C6 linker; {Cy5} = Cy5 fluorescent dye label; d = 2'-deoxy (DNA); m = 2'-O-methyl; r = 2'-OH (RNA)

What was measured:
[1] = tested on: p44/42 MAPK (Thr202/Tyr204) in CHO cells expressing mGlu7 receptors; assay: p44/42 MAPK activities (PathScan Sandwich ELISA) in CHO cells expressing mGlu7 receptors; format: cell-based, rat; conditions: 5 minutes stimulation; FIG. 8C
Method: Cells stably expressing the rat mGluR7 receptor are seeded in growth medium in 6 well plates. The next day, medium is replaced with 2 ml starvation medium (Opti-MEM with 0.1% fatty acid free BSA). The following day cells are stimulated with compound in 150 μl starvation medium for the indicated times at 37° C., otherwise cells are stimulated for 5 minutes. Cells are washed with ice cold PBS and lyzed in 150 ul buffer containing 1 mM β-glycerophosphate 1 mM EDTA, 1 mM EGTA, 1 μg/ml leupeptin, 150 mM sodium chloride, 2.5 mM sodium phosphate, 20 mM Tris-Cl, 1 mM PMSF and 1% Triton X-100, scraped off and sonicated on ice. After centrifugation the supernatant is analyzed for p44/42 MAPK activities using the PathScan™ Sandwich ELISA kit according to instructions of the manufacturer. Absorbance ([…]) is read using the EnVision reader (Perkin Elmer).

[2] = biological target: T1, rat mGlu7a receptor (Rattus norvegicus, UniProt P35400); assay: CRE-luciferase reporter gene assay in rat mGlu7a transfected CHO clones; format: cell-based; conditions: 1 μM forskolin and 0.5 mM L-AP4, 4 h; responses across clones ranged from no depression to this maximum
T1 construct: expressed in transfected cells
Description: The cDNA of the rat mGlu7a receptor splice variant (Genbank: D16817) was inserted into a eukaryotic expression vector pcDNA3.1(+). This plasmid was transfected into CHO cells deficient in dihydrofolate reductase activity (CHO-dhfr^−) harboring a luciferase reporter gene under the control of 5 cAMP-responsive elements (CRE) using Lipofectamine plus according to the instruction of the manufacturer. Clones were isolated through limited dilutions and identified by activities in the reporter gene assay. Cells were stimulated with 1 μM forskolin and 0.5 mM L-AP4 in the assay buffer. After 4 h the supernatant was exchanged with lysis buffer and the luciferase activity measured. Responses ranged from no depression to about 83% depression. A clonal cell line displaying the greatest inhibition of forskolin-mediated luciferase activity was selected and identified as giving consistently good responses for up to at least 20 passages.

[3] = biological target: T2, rat mGluR7 receptor (Rattus norvegicus, UniProt P35400); assay: Antibody mediated cellular uptake of siRNA-Cy5 in mGluR7 expressing CHO cells; format: cell-based; conditions: mix of 67 nM primary antibody and 20 nM siRNA-Cy5, 37° C., 40 minutes; FIG. 5 E-H
T2 construct: expressed in transfected cells
Method: The experiment was carried out according to the protocol, with the following modifications: The cells were incubated with 67 nm primary antibody conjugated to siRNA-Cy5 (Molar ratio 1 to 0.3) or a mix of 67 nM primary antibody and 20 nM siRNA-Cy5 at 37° C. for 40 minutes. The secondary antibody used for detection of cell surface primary immunostaining was labelled with Alexa488 and the secondary antibody used for detection of whole cell primary immunostaining was labelled with Alexa532. The Trueblue and hoechst staining of the cytoplasm was replaced with a staining step following the formaldehyde fixation, where the samples where incubated with 3 uM Hoechst and 2 μg/ml CellmaskBlue in PBS for 15 minutes at roomtemperature followed by a second fixation with 4% formaldehyde for 15 minutes at roomtemperature.
Each row contains images acquired in parallel of the same field of view in the well. Panel A-D is with primary antibody labelled with siRNA-Cy5, panel E-H with primary antibody mixed with siRNA-Cy5.

T1 sequence (P35400 35-915): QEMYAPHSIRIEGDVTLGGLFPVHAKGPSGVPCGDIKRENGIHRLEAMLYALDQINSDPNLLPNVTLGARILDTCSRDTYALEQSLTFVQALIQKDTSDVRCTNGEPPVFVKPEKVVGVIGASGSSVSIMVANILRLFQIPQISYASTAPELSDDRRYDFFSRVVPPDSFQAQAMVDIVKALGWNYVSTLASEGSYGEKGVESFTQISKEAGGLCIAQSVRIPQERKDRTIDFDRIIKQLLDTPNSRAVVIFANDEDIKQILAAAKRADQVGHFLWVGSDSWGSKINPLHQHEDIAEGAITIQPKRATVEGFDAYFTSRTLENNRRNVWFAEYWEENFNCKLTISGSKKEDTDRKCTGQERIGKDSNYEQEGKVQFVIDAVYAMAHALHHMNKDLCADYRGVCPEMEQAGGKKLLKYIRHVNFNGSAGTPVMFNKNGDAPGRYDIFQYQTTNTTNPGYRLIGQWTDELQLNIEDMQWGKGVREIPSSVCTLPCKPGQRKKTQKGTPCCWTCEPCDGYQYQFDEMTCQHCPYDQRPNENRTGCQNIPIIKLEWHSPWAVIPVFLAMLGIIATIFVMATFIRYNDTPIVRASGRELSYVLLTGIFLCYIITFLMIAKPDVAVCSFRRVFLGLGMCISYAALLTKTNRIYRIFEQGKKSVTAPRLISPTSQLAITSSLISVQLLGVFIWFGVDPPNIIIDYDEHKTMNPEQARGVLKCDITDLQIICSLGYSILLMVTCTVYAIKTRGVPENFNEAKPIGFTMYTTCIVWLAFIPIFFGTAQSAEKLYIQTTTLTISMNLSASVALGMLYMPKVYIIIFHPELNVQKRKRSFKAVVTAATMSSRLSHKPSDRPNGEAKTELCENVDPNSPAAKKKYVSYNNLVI
T2 sequence (P35400 35-915): as above

Cl.Cl.c1ccc(C(NCCNC(c2ccccc2)c2ccccc2)c2ccccc2)cc1 [AMN082, Dibenzhydrylethane-1,2-diamine dihydrochloride]
triggering of increases of p44/42 MAPK activities (specificity) [1]: do not trigger increases

NC(CCP(=O)(O)O)C(=O)O [L-AP4]
depression of forskolin-mediated luciferase activity [2]: about 83%
triggering of increases of p44/42 MAPK activities (specificity) [1]: do not trigger increases

siRNA: Cy5 labeled siRNA, sense SEQ ID NO: 1 with C6SSC6 linker, antisense SEQ ID NO: 2; tested mixed with IgG (sense {Cy5}-mCmUmUrAmCrGmCmUrGrArGmUrAmCmUmUmCrGrAdTdT[C6SSC6]dT; antisense rUrCrGrArArGmUrArCrUmCrArGrCrGmUrArArGdT*dT)
internalization without a covalent link between IgG and siRNA [3]: only the IgG is internalized
